Legend:
MDA-MB-231 cells = test: Tumor exosome secretion, Mortalin scanning peptides (Figure 5B), MDA-MB-231; type: cell-based, human; settings: 48 h; for MDA-MB-231 N-Rh-PE (exosome secretion): 50 ng / 200 μL peptide, transfected, N-Rh-PE fluorescence in media, SMRmut = 100, mean of three independent experiments
Protocol: (§1) Figure 5 Effects of Mortalin-derived peptides on inhibition of exNef and tumor exosome secretion. (A) Jurkat T cells were co-transfected with 250 ng of wild-type Nef-GFP plasmid and 50 ng of Mortalin-derived scanning peptides (#56–#67), including SMRwt and SMRmut as positive and negative controls. After 48 h, GFP fluorescence in culture media was measured to assess exNef secretion. Data represent mean ± SD from three independent experiments. Statistical significance was determined using a two-sample t-test assuming equal variances. (B) MDA-MB-231 cells were transfected with 50 ng of Mortalin-derived scanning peptides (#56–#67), including SMRwt and SMRmut controls. Cells were labeled with N-Rh-PE and incubated for 48 h. N-Rh-PE fluorescence in culture media was measured to assess exosome secretion. Data represent mean ± SD from three independent experiments. Statistical significance was determined using a two-sample t-test assuming equal variances. TEXT PRINTED IN THE PICTURE: (A) #56: Jurkat GFP (%): 117.84 (50 ng / 200 μL) | (A) #57: Jurkat GFP (%): 96.69 (50 ng / 200 μL) | (A) #58: Jurkat GFP (%): 91.89 (50 ng / 200 μL) | (A) #59: Jurkat GFP (%): 95.49 (50 ng / 200 μL) | (A) #60: Jurkat GFP (%): 98.25 (50 ng / 200 μL) | (A) #61: Jurkat GFP (%): 0.65 (50 ng / 200 μL) | (A) #62: Jurkat GFP (%): 0.51 (50 ng / 200 μL) | (A) #63: Jurkat GFP (%): 98.02 (50 ng / 200 μL) | (A) #64: Jurkat GFP (%): 95.37 (50 ng / 200 μL) | (A) #65: Jurkat GFP (%): 96.34 (50 ng / 200 μL) | (A) #66: Jurkat GFP (%): 92.28 (50 ng / 200 μL) | (A) #67: Jurkat GFP (%): 99.56 (50 ng / 200 μL) | (A) SMRwt: Jurkat GFP (%): 0.51 (50 ng / 200 μL) | (A) SMRmut: Jurkat GFP (%): 100 (50 ng / 200 μL) | (B) #56: MDA-MB-231 N-Rh-PE (%): 66.31 (50 ng / 200 μL) | (B) #57: MDA-MB-231 N-Rh-PE (%): 79.73 (50 ng / 200 μL) | (B) #58: MDA-MB-231 N-Rh-PE (%): 68.11 (50 ng / 200 μL) | (B) #59: MDA-MB-231 N-Rh-PE (%): 67.81 (50 ng / 200 μL) | (B) #60: MDA-MB-231 N-Rh-PE (%): 72.32 (50 ng / 200 μL) | (B) #61: MDA-MB-231 N-Rh-PE (%): 7.53 (50 ng / 200 μL) | (B) #62: MDA-MB-231 N-Rh-PE (%): 5.36 (50 ng / 200 μL) | (B) #63: MDA-MB-231 N-Rh-PE (%): 75.39 (50 ng / 200 μL) | (B) #64: MDA-MB-231 N-Rh-PE (%): 73.49 (50 ng / 200 μL) | (B) #65: MDA-MB-231 N-Rh-PE (%): 81.65 (50 ng / 200 μL) | (B) #66: MDA-MB-231 N-Rh-PE (%): 81.79 (50 ng / 200 μL) | (B) #67: MDA-MB-231 N-Rh-PE (%): 89.82 (50 ng / 200 μL) | (B) SMRwt: MDA-MB-231 N-Rh-PE (%): 6.11 (50 ng / 200 μL) | (B) SMRmut: MDA-MB-231 N-Rh-PE (%): 100 (50 ng / 200 μL)
To assess the effect of Mortalin-derived peptides on tumor exosome secretion, MDA-MB-231 breast cancer cells were transfected with the same panel of scanning peptides and labeled with N-Rh-PE to track exosome release. Following incubation, N-Rh-PE fluorescence in the culture media was measured as a proxy for extracellular exosome levels. SMRwt and SMRmut peptides were again used as controls. […] Statistical analysis confirmed significant differences: SMRmut vs. #61 (p < 7.20 × 10^−7), SMRmut vs. #62 (p < 5.70 × 10^−7), and SMRmut vs. SMRwt (p < 5.96 × 10^−7).

Jurkat T cells = test: exNef secretion, Mortalin scanning peptides (Figure 5A), Jurkat T cells; type: cell-based; settings: for Jurkat GFP (exNef secretion): 50 ng / 200 μL peptide, 250 ng Nef-GFP plasmid, GFP fluorescence in media, SMRmut = 100, mean of three independent experiments
Protocol: To determine whether Mortalin-derived peptides can inhibit the secretion of extracellular Nef (exNef), Jurkat T cells were co-transfected with wild-type Nef-GFP and various scanning peptides derived from the substrate-binding domain of Mortalin (#56–#67). SMRwt and SMRmut peptides were included as positive and negative controls, respectively. After 48 h of incubation, GFP fluorescence in the culture media was measured as a proxy for exNef secretion.
as §1
To identify peptide sequences within Mortalin that modulate extracellular vesicle (EV) secretion, a panel of scanning peptides was synthesized and tested in Jurkat T cells. The peptides, listed in Table 1, were custom-synthesized with an average purity of 75% and used in transfection assays to evaluate their impact on EV release. Jurkat T cells (3 × 10^5) were co-transfected with 50 ng of individual Mortalin peptides […] 250 ng of wild-type Nef-GFP plasmid using Chariot™ transfection reagent. Transfection efficiency was confirmed by fluorescence microscopy after 48 h. EV secretion was assessed by measuring GFP fluorescence in the culture media, and statistical analysis was performed using unpaired two-factor t-tests (p < 0.05). Panel of Mortalin scanning peptides developed and tested for their effect EV secretion and Table S2. Mortalin Scanning Peptides Used in Transfection Assays, see the Supplementary Information. […]

| Substance | MDA-MB-231 N-Rh-PE (exosome secretion) (MDA-MB-231 cells) [%] | p, SMRmut vs. peptide, exosome secretion (MDA-MB-231 cells; two-sample t-test assuming equal variances, 50 ng peptide) | Jurkat GFP (exNef secretion) (Jurkat T cells; 48 h) [%] | cluster formation / potential peptide aggregation (Jurkat T cells; Jurkat exNef experiment) | p, SMRmut vs. peptide, exNef secretion (Jurkat T cells; two-sample t-test assuming equal variances, 50 ng peptide, 48 h) |
| --- | --- | --- | --- | --- | --- |
| DQLPADECNKLKEEISKMRE [#61, Mortalin scanning peptide 61] | 7.53 | < 7.20 × 10^−7 | 0.65 | formed small clusters | < 1.47 × 10^−13 |
| ^66Ala-Gly-Phe-Pro-Val^70 [SMRmut, 5-mer negative control, Val66 changed to Ala] | 100 | – | 100 | – | – |

From article PMC12469269, “Investigating SMR Peptide Interactions with Breast Cancer-Associated Proteins” (International Journal of Molecular Sciences, 2025)
